The assay has as its system Plasmodium falciparum. Kind of assay: MMV: IC50 determined against P. falciparum Dd2-luc strain using a Malaria Sybr Green I Fluorescence assay. Starting conditions were 1% trophozoite synchronised parasites at 2% haematocrit. Fluorescence detection completed after 48hr incubation at 37 degrees C under 1% O2, 3% CO2 and balance N2. It counts as functional, organism-based. Conditions: Dd2, 48 h.
One may read the IC50 as the point on the concentration scale where inhibition reaches its midpoint. The low end stands for greater potency, the high end for weaker potency. For the compound `CCN1CCCC1CNc1[nH]cnc2c3cc(Cl)ccc3nc1-2` (stereo not drawn), the concentration for half-maximal inhibition (IC50) came out at 1450 nM.

For the compound `CCOc1cc(CNC(C)C(O)c2ccccc2)cc(Cl)c1OCC` (stereo not drawn), the IC50 is 1910 nM.

Consider `Nc1nc(Nc2cccc(F)c2)nc2ccccc12`, for which the IC50 amounted to 2370 nM.

For the compound `CCOc1c(Cl)cc(CNCC(O)c2ccccc2)cc1OC` (stereo not drawn), half-maximal inhibition (IC50) was put at 1300 nM.

For the compound `COc1ccc2nc(C)cc(Nc3ccccc3O)c2c1`, the IC50 is 1100 nM.

As for `Cc1cc(C)cc(Nc2cc(C)nc3nc(C(F)(F)F)nn23)c1`, 137 nM corresponded to half-maximal inhibition (IC50).

`CCn1nc(-c2ccc(C(=O)OC)cc2)nc2c(=O)n(C)c(=O)nc1-2`: the IC50 was found to be 691 nM.

Take `CCOc1ccccc1CN1CCc2nc3cc(C(C)(C)C)nn3c(O)c2C1`: half-maximal inhibition (IC50) was put at 1220 nM.

`O=C(NC1CCN(Cc2ccccc2)CC1)c1cc2nc(-c3ccc(Cl)s3)cc(C(F)(F)F)n2n1` returned a half-inhibitory concentration (IC50) of 5170 nM.

Turning to `Cc1sc(NC(=O)c2ccco2)c(C(c2cccnc2)N2CCC(Cc3ccccc3)CC2)c1C` (stereo not drawn), the IC50 worked out at 1340 nM.

With `Cc1cc(N2CCCC2)nc(Nc2ccc(NC(=O)CCc3ccccc3)cc2)n1`, half-maximal inhibition (IC50) required 1260 nM.

Turning to `O=C(NCC(c1ccsc1)N1CCCCCC1)c1ccc(C(F)(F)F)cc1` (stereo not drawn), the IC50 worked out at 467 nM.

Compound `Cc1cc(NC(=O)c2cccc(C(F)(F)F)c2)n(-c2nc(-c3ccc4c(c3)OCO4)cs2)n1` had an IC50 of 2180 nM.

For the compound `CCCCCC(=O)N1c2ccccc2N=C2CC(c3ccc(OC)c(OC)c3)CC(O)=C2C1c1ccc(C(F)(F)F)cc1` (stereo not drawn), 179 nM corresponded to half-maximal inhibition (IC50).

`COc1ccc(-n2ccnc2SCC(=O)Nc2cc(C)ccc2C)c(OC)c1` showed an IC50 of 351 nM.

In turn, `CCN1CCN(Cc2ccc(NC(=O)c3cc4ccc5cccnc5c4[nH]3)cc2)CC1` displayed an IC50 of 665 nM.

With `COc1cccc(Nc2nc(NCCO)c3ccccc3n2)c1`, the IC50 was 885 nM.

Take `COc1ccc(C(=O)Nc2ccc3nc(N4CCCCC4)cc(C)c3c2)cc1OC`: half-maximal inhibition (IC50) was put at 614 nM.

For `COCCNCC(O)Cn1c2ccc(Cl)cc2c2cc(Cl)ccc21` (stereo not drawn), the IC50 amounted to 652 nM.

Consider `COc1ccc(N2CCN(C(CNC(=O)C3CCCCC3)c3ccc4c(c3)OCO4)CC2)cc1` (stereo not drawn), for which it took 569 nM to reach half-maximal inhibition (IC50).

Regarding `O=C(NC1CCN(Cc2ccccc2)CC1)c1cc(-c2ccncc2)nc2ccc(Cl)cc12`, the midpoint of inhibition, the IC50, lay at 1480 nM.

Compound `COc1cccc(Nc2nc(N)c3ccccc3n2)c1` yielded a 50% inhibitory concentration (IC50) of 3110 nM.

For `CCC(O)c1ccc(Br)cc1NC(=O)c1cccc(Cl)c1` (stereo not drawn), the IC50 came to 701 nM.

`CN(C)CCCNCc1ccc(-c2ccc(F)c(Cl)c2)o1` registered an IC50 of 1160 nM.

`Cn1c(=O)c2cc(C(=O)NCCCN3CCCCCC3)sc2c2ccccc21` gave a 50% inhibitory concentration (IC50) of 366 nM.

On to `Cc1[nH]c(-c2ccc(F)cc2)cc1C(=O)NC1CCN(Cc2ccccc2)CC1`, for which the IC50 was 1670 nM.

The compound `Cc1sc2ncnc(Sc3nc4ccccc4[nH]3)c2c1C` displayed an IC50 of 844 nM.

Take `CC1CN(C(=O)c2sc3ccccc3c2Cl)CC(C)O1` (stereo not drawn): the IC50 came to 104 nM.

For `CCC(=O)Nc1nnc(Cc2ccc(OC)c(OC)c2)s1`, the midpoint of inhibition, the IC50, lay at 704 nM.

Regarding `Oc1ccccc1CN1CCN(C(c2ccccc2)c2ccccc2)CC1`, the 50% inhibitory concentration (IC50) came to 959 nM.

As for `c1ccc2c(NCCCCCCNc3c4c(nc5ccccc35)CCCC4)c3c(nc2c1)CCCC3`, the midpoint of inhibition, the IC50, lay at 545 nM.

In turn, `CCC1(C)CC(CCNCc2ccccc2O)(c2ccc(C)cc2)CCO1` (stereo not drawn) came in with a 50% inhibitory concentration (IC50) of 141 nM.

Consider `O=C(NCCCN1CCC(N2CCCCC2)CC1)C1=Cc2cc(Br)ccc2OC1`, for which half-maximal inhibition (IC50) required 965 nM.

Compound `O=C(NC1CCN(Cc2ccccc2)CC1)c1cc(C(=O)NC2CCN(Cc3ccccc3)CC2)cc(C(=O)NC2CCN(Cc3ccccc3)CC2)c1` registered a half-inhibitory concentration (IC50) of 264 nM.

Compound `CCN1CCN(c2cc(C)c3cc(NC(=O)c4ccc(OC)c(OC)c4)ccc3n2)CC1` came in with an IC50 of 1850 nM.

Take `Fc1ccc2[nH]c3c(NCCCN4CCOCC4)ncnc3c2c1`: the IC50 is 335 nM.

`CC(=O)Nc1nnc(SCc2c(C)cc(C(C)(C)C)cc2C)s1` showed an IC50 of 794 nM.

In turn, `Cc1ccc(Cl)cc1N1CCN(CCCNC(=O)C2CCN(c3nc4ccccc4[nH]3)CC2)CC1` had a 50% inhibitory concentration (IC50) of 1300 nM.

In turn, `O=C(Nc1ccc(CN2CCOCC2)cc1)c1ccc(-c2cc(Cl)ccc2Cl)o1` came in with an IC50 of 1740 nM.

The compound `CCOc1ccc(C2N(C)c3ccccc3N2C)cc1` displayed an IC50 of 904 nM.

Compound `Cc1cccc(Nc2nc(N)c3ccccc3n2)c1` displayed an IC50 of 3500 nM.

Compound `COc1cccc(C(=O)Nc2ccc(-c3nc4ccccc4[nH]3)cc2)c1` came in with a 50% inhibitory concentration (IC50) of 832 nM.

In turn, `CCn1c(CN2CCN(Cc3ccccc3)CC2)nc2cc(NC(=O)c3cccs3)ccc21` showed an IC50 of 468 nM.

Consider `O=C(NC1CCN(Cc2ccccc2)CC1)c1cc(-c2cccnc2)nc2ccc(Cl)cc12`, for which the IC50 was determined as 1220 nM.

For the compound `CCN(Cc1ccccc1)C1CCN(Cc2cc(Br)ccc2O)CC1`, half-maximal inhibition (IC50) was put at 603 nM.

Turning to `Nc1ccc(-c2nc3cc(Oc4ccc(Oc5ccc6[nH]c(-c7ccc(N)cc7)nc6c5)cc4)ccc3[nH]2)cc1`, the IC50 was 315 nM.

`Cc1ccc(C)c(Cn2c(N3CCC(C(=O)NCc4cccs4)CC3)nc3ccccc32)c1` came in with an IC50 of 1160 nM.

On to `CCOc1cccc(C(=O)Nc2ccc(-c3nc4ccccc4[nH]3)cc2)c1`, for which the half-maximal inhibitory concentration (IC50) turned out to be 1210 nM.

With `Cc1cc(N(C)C)nc(Nc2ccc(NC(=O)Nc3ccccc3)cc2)n1`, the IC50 was determined as 973 nM.

For `Clc1cc(Br)ccc1-c1ccc(CNCC2CCNCC2)o1`, the IC50 was 596 nM.

`COc1ccc(-c2nonc2NC(=O)c2cccc(Cl)c2)cc1OC` had an IC50 of 1330 nM.

`Cc1cc(NC(=O)c2ccc(-c3ccccc3)cc2)no1` had an IC50 of 775 nM.

`COc1cccc(-c2nn(C)c3sc(C(=O)NCCN4CCN(c5ccccc5F)CC4)cc23)c1` registered an IC50 of 1910 nM.

`Oc1ccccc1CNCC12CC3CC(CC(C3)C1)C2` showed an IC50 of 283 nM.

As to `CNCCCNc1ccnc2cc(Cl)ccc12`, half-maximal inhibition (IC50) required 437 nM.

In turn, `COc1cc(-c2nc(-c3ccccc3)c(-c3ccccc3)[nH]2)cc(OC)c1O` had an IC50 of 1540 nM.

Compound `COc1ccccc1CNC(=O)CCn1c(=O)[nH]c2ccsc2c1=O` had an IC50 of 977 nM.

`O=C(Nc1ccc(N2CCN(Cc3ccccc3)CC2)cc1)c1cccs1`: the IC50 worked out at 742 nM.

Turning to `Cc1ccc(-c2nc3ccccc3o2)cc1NCc1cc(Cc2ccccc2)ccc1O`, the IC50 worked out at 1700 nM.

Turning to `Cc1ccc(Nc2nc(N)c3ccccc3n2)cc1Cl`, the midpoint of inhibition, the IC50, lay at 1100 nM.

Compound `O=C(Nc1ccc(N2CCCCC2)c(Cl)c1)c1ccc(Br)o1` returned a concentration for half-maximal inhibition (IC50) of 559 nM.

As for `Cc1cc(C)c2nc(N3CCC(C(=O)NCCCN4CCC(N5CCCCC5)CC4)CC3)sc2c1`, the IC50 stood at 1280 nM.

Take `CC1CCN(Cc2ccc(NC(=O)c3cc4ccc5cccnc5c4[nH]3)cc2)CC1`: the IC50 turned out to be 242 nM.

Take `COc1cc(SC)ccc1C(=O)N1CCCC(C)C1` (stereo not drawn): it took 3950 nM to reach half-maximal inhibition (IC50).

Compound `CC(C)(C)c1ccc(C(=O)Nc2nc3ccccc3s2)cc1` returned an IC50 of 4150 nM.

In turn, `COc1cc(CNCCc2ccc(Cl)cc2)cc(OC)c1O` displayed an IC50 of 1870 nM.

The compound `Cc1cc(Nc2ccc(Cl)cc2)n2nc(C(F)(F)F)nc2n1` had an IC50 of 302 nM.

The compound `COc1cc2c(cc1OC)C1=NNC(=O)C1=NC(C)(C)C2` returned an IC50 of 732 nM.

For `CCOC(=O)C1CCN(C(=O)CN2C(=O)c3ccccc3C2c2c[nH]c3ccccc23)CC1` (stereo not drawn), half-maximal inhibition (IC50) was put at 512 nM.

Turning to `CN(C)c1ccc(N=Cc2ccc(N3CCOCC3)cc2)cc1`, the IC50 came out at 345 nM.

Turning to `CC(C)(C)c1ccc(C2CC3=Nc4ccccc4N(C(=O)c4ccccc4Cl)C(c4ccc(F)cc4)C3=C(O)C2)cc1` (stereo not drawn), the IC50 amounted to 1990 nM.

In the case of `O=C(Nc1cccc(C2=NCCN2)c1)Nc1cccc(C2=NCCN2)c1` [IMIDOCARB], the midpoint of inhibition, the IC50, lay at 332 nM.

As to `CN(C)c1ccc(C(O)(c2ccc(N(C)C)cc2)c2ccc(N(C)C)cc2)cc1` [METHYLROSANILINE], the IC50 is 218 nM.
